Values of other authors in patent US20140080923A1, “STEVIA BASED SWEETENING COMPOSITION” (STEVINOL LTD., priority 2011, published 2014).

Settings: background statement

| Structure (SMILES) | sweetness compared with sucrose |
| --- | --- |
| C=C1C[C@@]23CC[C@H]4[C@@](C)(CCC[C@@]4(C)C(=O)O[C@@H]4O[C@H](CO)[C@@H](O)[C@H](O)[C@H]4O)[C@@H]2CC[C@]1(O[C@@H]1O[C@H](CO)[C@@H](O)[C@H](O)[C@H]1O[C@@H]1O[C@H](CO)[C@@H](O)[C@H](O)[C@H]1O)C3 [stevioside] | ~300 times sweeter than sucrose |
| C=C1C[C@@]23CC[C@H]4[C@@](C)(CCC[C@@]4(C)C(=O)O[C@@H]4O[C@H](CO)[C@@H](O)[C@H](O)[C@H]4O)[C@@H]2CC[C@]1(O[C@@H]1O[C@H](CO)[C@@H](O)[C@H](O[C@@H]2O[C@H](CO)[C@@H](O)[C@H](O)[C@H]2O)[C@H]1O[C@@H]1O[C@H](CO)[C@@H](O)[C@H](O)[C@H]1O)C3 [rebaudioside A] | ~300 times sweeter than sucrose |
